From patent US20230110595A1, “MIXTURE OF PYRETHROIDS AND MILBEMYCINS AND USES THEREOF” (Valent BioSciences LLC, priority 2021, published 2023)

Experiments:
Format in all cases: in vivo
[1] = tested on: Permethrin Resistant C. quinquefasciatus; test: Wind tunnel bioassay, adult mosquitoes, Example 2 (September 2021)
Experimental: (§1) In this bioassay, a wind tunnel bioassay was performed in the United States of America in September 2021. Culex quinquefasciatus that were known to be resistant and susceptible to permethrin were used in the studies. The following solutions were applied to adult C. quinquefasciatus mosquitoes: 1) 0.5% moxidectin; 2) 0.5% pyrethrum; and 3) a mixture of 0.5% pyrethrum and 0.5% moxidectin.
(§2) Percent mortality was recorded at 15 minutes (“Min”), 1 hour (“Hr”), 24 hours and 48 hours. OCE:ECE ratios were calculated as in Example 1, above.

[2] = tested on: Permethrin Susceptible C. quinquefasciatus; test: as above
Experimental: as §1, §2

[3] = tested on: Permethrin Resistant C. quinquefasciatus; test: Wind tunnel bioassay, adult mosquitoes, Example 1 (May 2021)
Experimental: as §1, with “in May” for “in September”, “1) 1.5%” for “1) 0.5%”, “2) 5% permethrin; 3) 2.5%” for “2) 0.5%”, “pyrethrum; 4)” for “pyrethrum; and 3)”, “of 5% permethrin and 1.5% moxidectin; and 5) a mixture of 2.5%” for “of 0.5%”, “and 1.5%” for “and 0.5%”
(§3) To determine if the mixtures provided unexpected results, the observed combined efficacy (“OCE”) was divided by the expected combined efficacy (“ECE”) wherein the expected ECE is calculated by the Abbott method: […]
(§4) wherein ECE is the expected combined efficacy and in which A and B are the percent control given by the single active ingredients. If the ratio between the OCE of the mixture and the ECE of the mixture is greater than 1, then greater than expected interactions are present in the mixture. (Gisi, Synergistic Interaction of Fungicides in Mixtures, The American Phytopathological Society, 86:11, 1273-1279, 1996). Percent mortality was recorded at 15 minutes (“Min”), 1 hour (“Hr”), 24 hours and 48 hours.

[4] = tested on: Permethrin Susceptible C. quinquefasciatus; test: as above
Experimental: as §1, with “in May” for “in September”, “1) 1.5%” for “1) 0.5%”, “2) 5% permethrin; 3) 2.5%” for “2) 0.5%”, “pyrethrum; 4)” for “pyrethrum; and 3)”, “of 5% permethrin and 1.5% moxidectin; and 5) a mixture of 2.5%” for “of 0.5%”, “and 1.5%” for “and 0.5%”
as §3, §4

Compound | % Mortality ([1]; 1 Hr) [%] | % Mortality ([1]; 15 Min) [%] | % Mortality ([1]; 24 Hr) [%] | % Mortality ([1]; 48 Hr) [%] | % Mortality ([2]; 1 Hr) [%] | % Mortality ([2]; 15 Min) [%] | % Mortality ([2]; 24 Hr) [%] | % Mortality ([2]; 48 Hr) [%] | % Mortality ([3]; 1 Hr) [%] | % Mortality ([3]; 15 Min) [%] | % Mortality ([3]; 24 Hr) [%] | % Mortality ([3]; 48 Hr) [%] | % Mortality ([4]; 1 Hr) [%] | % Mortality ([4]; 15 Min) [%] | % Mortality ([4]; 24 Hr) [%] | % Mortality ([4]; 48 Hr) [%] | control ([4]; span over 15 minutes to 48 hours) [%]
CO/N=C1\C[C@]2(C[C@@H]3C[C@@H](C/C=C(\C)C[C@@H](C)/C=C/C=C4\CO[C@@H]5[C@H](O)C(C)=C[C@@H](C(=O)O3)[C@]45O)O2)O[C@H](/C(C)=C/C(C)C)[C@H]1C [0.5% Moxidectin, moxidectin] | 0.00 | 0.00 | 11.25 | 8.75 | 26.25 | 1.25 | 95.00 | 95.00 |  |  |  |  |  |  |  |  | 
CO/N=C1\C[C@]2(C[C@@H]3C[C@@H](C/C=C(\C)C[C@@H](C)/C=C/C=C4\CO[C@@H]5[C@H](O)C(C)=C[C@@H](C(=O)O3)[C@]45O)O2)O[C@H](/C(C)=C/C(C)C)[C@H]1C [1.5% Moxidectin, moxidectin] |  |  |  |  |  |  |  |  | 0 | 15 | 68.75 | 50 | 67.5 | 53.75 | 92.5 | 92.5 | 
CC1(C)C(C=C(Cl)Cl)C1C(=O)OCc1cccc(Oc2ccccc2)c1 (stereo not shown) [5% Permethrin, permethrin] |  |  |  |  |  |  |  |  | 81.25 | 35 | 97.5 | 96.25 | 100 | 100 | 100 | 100 | ~100
